Test results: patent US8586291B2 (priority 2001, dated 2013)

Assays:
[1] = system: Ba/F3 + IL-3 (BCR-ABL-negative parental cells); assay: Growth inhibition, viable cells by trypan blue dye exclusion; type: cell-based, murine; details: Mus musculus, BaF3, concentration reducing number of viable cells by 50%, read-out: MEAN IC50 ± S.D.
Ba/F3 P210 WT = assay: as above; type: cell-based, murine; details: Mus musculus, BaF3, concentration reducing number of viable cells by 50%, read-out: MEAN IC50 ± S.D.
Ba/F3 P210 T315I = assay: as above; type: cell-based, murine; details: Mus musculus, BaF3, concentration reducing number of viable cells by 50%, read-out: MEAN IC50 ± S.D.
Ba/F3 P210 E255K = assay: as above; type: cell-based, murine; details: Mus musculus, BaF3, concentration reducing number of viable cells by 50%, read-out: MEAN IC50 ± S.D.
[2] = system: wild-type BCR-ABL-expressing Ba/F3 cells; assay: CRKL phosphorylation, western blot and densitometry; type: cell-based, murine; details: 24 hours
[3] = system: T315I BCR-ABL-expressing Ba/F3 cells; assay: as above; type: cell-based, murine; details: 24 hours
[4] = system: E255K BCR-ABL-expressing Ba/F3 cells; assay: as above; type: cell-based, murine; details: 24 hours
wild-type BCR-ABL = assay: BCR-ABL protein degradation, anti-ABL western blot in Ba/F3 cells; details: 24 hours
T315I BCR-ABL = assay: as above; details: 24 hours
E255K BCR-ABL = assay: as above; details: 24 hours
v-Src versus c-Src = details: cited from earlier work

| IC50 (Ba/F3 P210 WT) [µM] | IC50 (Ba/F3 P210 T315I) [µM] | IC50 (Ba/F3 P210 E255K) [µM] | Structure (SMILES) | IC50 [1] [µM] | concentration at which significant changes in CRKL phosphorylation were observed [2] [µM] | concentration at which CRKL phosphorylation was significantly inhibited [3] [µM] | concentration at which CRKL phosphorylation was significantly inhibited [4] [µM] | concentration at which BCR-ABL protein levels decrease (wild-type BCR-ABL) [µM] | concentration at which BCR-ABL protein levels decrease (T315I BCR-ABL) [µM] | concentration at which virtually no BCR-ABL protein was detectable (T315I BCR-ABL) [µM] | concentration at which BCR-ABL protein levels decrease (E255K BCR-ABL) [µM] | concentration at which virtually no BCR-ABL protein was detectable (E255K BCR-ABL) [µM] | fold resistance of v-Src versus c-Src to kinase inhibition (v-Src versus c-Src) |
| --- | --- | --- | --- | --- | --- | --- | --- | --- | --- | --- | --- | --- | --- |
| 5.2 ± 2.4 | 2.3 ± 0.4 | 1 ± 0.2 | C=CCNC1=C2C[C@@H](C)C[C@H](OC)[C@H](O)[C@@H](C)/C=C(\C)[C@H](OC(N)=O)[C@@H](OC)/C=C\C=C(/C)C(=O)NC(=CC1=O)C2=O [17-AAG, 17-allylaminogeldanamycin] | 12.4 ± 0.3 | 5.0 | 0.5 | 0.5 | 0.5 to 1.0 | 0.5 | 1.0 | 0.5 | 1.0 | – |
| 4.9 ± 1.6 | 1.8 ± 2.1 | 2.6 ± 2.4 | COC1=C2C[C@@H](C)C[C@H](OC)[C@H](O)[C@@H](C)/C=C(\C)[C@H](OC(N)=O)[C@@H](OC)/C=C\C=C(/C)C(=O)NC(=CC1=O)C2=O [GA, Geldanamycin] | 27.3 ± 14.1 | – | – | – | 1.0 | 0.5 | – | 0.5 | – | – |
| – | – | – | Cc1ccc(-c2nn(C(C)(C)C)c3ncnc(N)c23)cc1 [PP1] | – | – | – | – | – | – | – | – | – | approximately 50 fold |
